Reference: patent US8642608B2, “Quinazoline derivatives as VEGF inhibitors” (AstraZeneca AB, priority 1999, dated 2014)

Legend:
[1] = tested on: femoral epiphyseal growth plates of the distal femur and proximal tibia; assay: 14 day toxicity test in rat (d); type: in vivo, Alderley Park rats (Wistar derived); details: 100 mg/kg/day, oral gavage, 14 days, female rats; p<0.001 (one-tailed Students' t-test)
Text: The toxicological profile of compounds of the present invention may be assessed, for example using a rat 14 day study as described hereinafter.
(d) 14 Day Toxicity Test in Rat
This test measures the activity of compounds in increasing the zone of hypertrophy in the femoral epiphyseal growth plates of the distal femur and proximal tibia, and allows assessment of histopathological changes in other tissues.
A. Preclinical Safety Evaluation of rhuMAbVEGF, an antiangiogenic humanised monoclonal antibody, Tox. Path., 27: 78-86, 1999).
Compounds were initially formulated by suspension in a 1% (v/v) solution of polyoxyethylene (20) sorbitan mono-oleate in deionised water, by ball-milling at 4° C. overnight (at least 15 hours). Compounds were re-suspended by agitation immediately prior to dosing. […] The femoral epiphyseal growth plate areas of the distal femur and proximal tibia were measured in sections of femur and tibia using morphometric image analysis. The increase in the zone of hypertrophy was determined by comparison of the mean epiphyseal growth plate area of the control group versus the treatment group, and statistical significance determined using a one-tailed Students' t-test. […]

[2] = tested on: VEGF-stimulated human umbilical vein endothelial cells (HUVEC); assay: In vitro HUVEC proliferation assay (b), VEGF-stimulated; type: cell-based; details: 96 h, test (b), VEGF 3 ng/ml, 4 days, tritiated-thymidine incorporation
Experimental: (§1) (b) In Vitro HUVEC Proliferation Assay
(§2) HUVEC cells were isolated in MCDB 131 (Gibco BRL)+7.5% v/v foetal calf serum (FCS) and were plated out (at passage 2 to 8), in MCDB 131+2% v/v FCS+3 μg/ml heparin+1 μg/ml hydrocortisone, at a concentration of 1000 cells/well in 96 well plates. After a minimum of 4 hours they were dosed with the appropriate growth factor (i.e. VEGF 3 ng/ml, EGF 3 ng/ml or b-FGF 0.3 ng/ml) and compound. The cultures were then incubated for 4 days at 37° C. with 7.5% carbon dioxide. On day 4 the cultures were pulsed with 1 μCi/well of tritiated-thymidine (Amersham product TRA 61) and incubated for 4 hours. The cells were harvested using a 96-well plate harvester (Tomtek) and then assayed for incorporation of tritium with a Beta plate counter. Incorporation of radioactivity into cells, expressed as cpm, was used to measure inhibition of growth factor-stimulated cell proliferation by compounds.

[3] = tested on: human umbilical vein endothelial cells (HUVEC), basal; assay: In vitro HUVEC proliferation assay (b), basal; type: cell-based; details: test (b)
[4] = tested on: EGF-stimulated human umbilical vein endothelial cells (HUVEC); assay: In vitro HUVEC proliferation assay (b), EGF-stimulated; type: cell-based; details: 96 h, test (b), EGF 3 ng/ml, 4 days, tritiated-thymidine incorporation
Experimental: as §1, §2

[5] = tested on: CaLu-6 tumour xenografts; assay: In vivo solid tumour disease model (c); parameters: species or system female athymic Swiss nu/nu mice; details: 50 mg/kg, orally once daily, CaLu-6 xenografts in mice; p<0.001 (Mann-Whitney Rank Sum Test)
Experimental: (c) In Vivo Solid Tumour Disease Model
This test measures the capacity of compounds to inhibit solid tumour growth.
CaLu-6 tumour xenografts were established in the flank of female athymic Swiss nu/nu mice, by subcutaneous injection of 1×10^6 CaLu-6 cells/mouse in 100 μl of a 50% (v/v) solution of Matrigel in serum free culture medium. […] Tumours were measured using vernier calipers and volumes were calculated as: (l×w)×√(1×w)×(π/6), where 1 is the longest diameter and w the diameter perpendicular to the longest diameter. Test compounds were administered orally once daily for a minimum of 21 days, and control animals received compound diluent. Tumours were measured twice weekly. The level of growth inhibition was calculated by comparison of the mean tumour volume of the control group versus the treatment group, and statistical significance determined using a Students' t-test and/or a Mann-Whitney Rank Sum Test. The inhibitory effect of compound treatment was considered significant when p<0.05.

Question: Which results are given for COc1cc2c(Nc3ccc(Br)cc3F)ncnc2cc1OCC1CCN(C)CC1 [Example 2, 4-(4-bromo-2-fluoroanilino)-6-methoxy-7-(1-methylpiperidin-4-ylmethoxy)quinazoline]?
Answer: increase in epiphyseal growth plate hypertrophy [1]: 75%; IC50 [2]: 60 nM; IC50 [3]: > 3000 nM; IC50 [4]: 170 nM; inhibition of tumour growth [5]: 78%
